Data set [1] has as its target yeast α-glucosidase (Saccharomyces cerevisiae, UniProt P53341). As to the kind of experiment: biochemical. The format is biochemical. To be noted: for α-glucosidase inhibitory activity, in words: SAR discussion; for IC50: read-out: IC50 (μM), in vitro α-glucosidase inhibitory activity. An excerpt:
On the other hand, there are phenyl, 4-methylphenyl, and or 4-methoxyphenyl groups in the benzenesulfonamide moiety.

Data set [2] addresses α-glucosidase. The note with it: read-out: IC50 against α-glucosidase, cited from earlier work.
In data set [3] the target is T1, α-amylase (Homo sapiens, UniProt P04746).
T1 sequence (P04746 16-511): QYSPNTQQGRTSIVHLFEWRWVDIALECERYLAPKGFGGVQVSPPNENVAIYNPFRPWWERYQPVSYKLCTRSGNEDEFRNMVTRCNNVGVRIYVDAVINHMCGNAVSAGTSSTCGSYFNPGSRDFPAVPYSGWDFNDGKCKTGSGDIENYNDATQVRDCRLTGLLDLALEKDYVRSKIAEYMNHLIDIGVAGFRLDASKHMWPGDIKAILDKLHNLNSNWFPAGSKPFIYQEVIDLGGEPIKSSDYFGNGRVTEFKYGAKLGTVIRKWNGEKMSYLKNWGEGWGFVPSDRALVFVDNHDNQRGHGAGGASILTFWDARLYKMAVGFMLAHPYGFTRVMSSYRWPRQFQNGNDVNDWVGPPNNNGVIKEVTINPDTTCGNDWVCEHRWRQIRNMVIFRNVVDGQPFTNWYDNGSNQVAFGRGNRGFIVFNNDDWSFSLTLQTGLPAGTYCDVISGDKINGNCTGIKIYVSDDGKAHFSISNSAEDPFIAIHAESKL
The experiment in a line: In vitro α-amylase inhibition assay. The format is biochemical. The note with it: at 300 μM.

Structures are written as SMILES. Where two headings read alike, the source gives them in different places.

Chain of yeast α-glucosidase (P53341 whole entry): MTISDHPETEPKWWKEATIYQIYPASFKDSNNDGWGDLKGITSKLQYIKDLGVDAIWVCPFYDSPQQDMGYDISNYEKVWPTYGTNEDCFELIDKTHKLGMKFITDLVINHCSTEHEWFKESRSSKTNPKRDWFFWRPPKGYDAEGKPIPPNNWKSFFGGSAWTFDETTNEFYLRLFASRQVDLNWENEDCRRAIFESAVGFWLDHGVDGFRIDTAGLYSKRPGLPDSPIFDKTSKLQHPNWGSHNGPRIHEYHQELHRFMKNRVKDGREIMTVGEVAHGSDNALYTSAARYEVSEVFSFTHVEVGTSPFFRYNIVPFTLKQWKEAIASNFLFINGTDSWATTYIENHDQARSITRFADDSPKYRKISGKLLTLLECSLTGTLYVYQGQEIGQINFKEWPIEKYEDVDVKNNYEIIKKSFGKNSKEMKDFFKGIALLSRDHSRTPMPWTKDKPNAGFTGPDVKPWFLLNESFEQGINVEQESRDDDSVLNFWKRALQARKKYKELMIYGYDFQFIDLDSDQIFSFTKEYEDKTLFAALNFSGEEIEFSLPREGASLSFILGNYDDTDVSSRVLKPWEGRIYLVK

For `O=C1c2ccccc2C(=O)N1CCC(=NS(=O)(=O)c1ccccc1)N1CCC(Cc2ccccc2)CC1` [Compound 4i, N-(1-(4-benzylpiperidin-1-yl)-3-(1,3-dioxoisoindolin-2-yl)propylidene)benzenesulfonamide], in data set [1], the “α-glucosidase inhibitory activity, in words” value was “high inhibitory activity” and the concentration for half-maximal inhibition (IC50) worked out at 84.3 ± 0.4 µM.

On to `O=C1c2ccccc2C(=O)N1CCCOc1ccc(Cl)c(Cl)c1` [A], for which the IC50 in data set [2] (Fig. 2, phthalimide derivative A study) is 7.55 µM.

`O=C(N/N=C/c1ccc(OCCCN2C(=O)c3ccccc3C2=O)cc1)c1cc2ccccc2oc1=O` [E]: the IC50 in data set [2] (Fig. 2, phthalimide-coumarin E study) is 85.2 µM.

Consider `O=C1c2ccccc2C(=O)N1CCC(=NS(=O)(=O)c1ccccc1)N1CCCCC1` [Compound 4a, N-(3-(1,3-Dioxoisoindolin-2-yl)-1-(piperidin-1-yl)propylidene)benzenesulfonamide], for which the melting point was in the range of 158 to 160 °C. In data set [1], the “α-glucosidase inhibitory activity, in words” value is “inactive”.

In turn, `O=C1c2ccccc2C(=O)N1CCC(=NS(=O)(=O)c1ccccc1)N1CCOCC1` [Compound 4d, N-(3-(1,3-dioxoisoindolin-2-yl)-1-morpholinopropylidene)benzenesulfonamide] had a melting point of 168 to 170 °C. Moreover, in data set [1], the “α-glucosidase inhibitory activity, in words” value was “inactive”.

As to `COc1ccc(S(=O)(=O)N=C(CCN2C(=O)c3ccccc3C2=O)N2CCC(Cc3ccccc3)CC2)cc1` [Compound 4k], in data set [1], the “α-glucosidase inhibitory activity, in words” value is “inactive”.

In turn, `Cc1ccc(S(=O)(=O)N=C(CCN2C(=O)c3ccccc3C2=O)N2CCOCC2)cc1` [Compound 4e, N-(3-(1,3-Dioxoisoindolin-2-yl)-1-morpholinopropylidene)-4-methylbenzenesulfonamide] displayed a melting point of 204 to 206 °C. For the same compound, in data set [1], the “α-glucosidase inhibitory activity, in words” value is “high inhibitory activity” and the half-maximal inhibitory concentration (IC50) stood at 117 ± 0.14 µM. The “inhibition effect against α-amylase” value in data set [3] is on record as “no inhibition effect”.

`Cc1ccc(S(=O)(=O)Nc2ccc3c(c2)C(=O)N(CCOc2ccc(O)cc2)C3=O)cc1` [B]: the 50% inhibitory concentration (IC50) in data set [2] (Fig. 2, phthalimide-benzenesulfonamid B study) is 25.5 µM.

`Cc1ccc(S(=O)(=O)N=C(CCN2C(=O)c3ccccc3C2=O)N2CCCCC2)cc1` [Compound 4b, N-(3-(1,3-Dioxoisoindolin-2-yl)-1-(piperidin-1-yl)propylidene)-4-methylbenzenesulfonamide] showed a melting point of 198 to 200 °C. Besides, in data set [1], the “α-glucosidase inhibitory activity, in words” value is listed as “high inhibitory activity” and the IC50 worked out at 127.24 ± 0.1 µM.

With `O=C1c2ccccc2C(=O)N1CCC(=NS(=O)(=O)c1ccccc1)N1CCN(c2ccccc2)CC1` [Compound 4l, N-(3-(1,3-dioxoisoindolin-2-yl)-1-(4-phenylpiperazin-1-yl)propylidene)benzenesulfonamide], the melting point fell in the range of 160 to 164 °C.

As for `O=C1c2ccccc2C(=O)N1CCC(=NS(=O)(=O)c1ccccc1)N(c1ccccc1)c1ccccc1` [Compound 4g, 3-(1,3-Dioxoisoindolin-2-yl)-N,N-diphenyl-N'-(phenylsulfonyl)propanimidamide], the melting point was in the range of 202 to 204 °C. Further, in data set [1], the “α-glucosidase inhibitory activity, in words” value was “moderate inhibitory activity” and the concentration for half-maximal inhibition (IC50) amounted to 478 ± 0.07 µM.

`Cc1ccc(S(=O)(=O)N=C(CCN2C(=O)c3ccccc3C2=O)N(c2ccccc2)c2ccccc2)cc1` [Compound 4h, 3-(1–3-Dioxoisoindolin-2-yl)-N,N-diphenyl-N’-tosylpropanimidamide]: the melting point lay within 202 to 204 °C. In addition, in data set [1], the “α-glucosidase inhibitory activity, in words” value is listed as “moderate α-glucosidase inhibitors” and the IC50 was determined as 497 ± 0.25 µM.

`COc1ccc(S(=O)(=O)N=C(CCN2C(=O)c3ccccc3C2=O)N2CCOCC2)cc1` [Compound 4f, N-(3-(1,3-Dioxoisoindolin-2-yl)-1-morpholinopropylidene)-4-methoxybenzenesulfonamide] had a melting point of 172 to 174 °C.

Take `NS(=O)(=O)c1ccc(N/N=C/c2coc3ccccc3c2=O)cc1` [D]: in data set [2] (Fig. 2, chromone-benzenesulfonamid D study), the IC50 is 20.1 µM.

For `COc1ccc(S(=O)(=O)N=C(CCN2C(=O)c3ccccc3C2=O)N2CCCCC2)cc1` [Compound 4c, N-(3-(1,3-dioxoisoindolin-2-yl)-1-(piperidin-1-yl)propylidene)-4-methoxybenzenesulfonamide], the melting point lay in the range of 146 to 148 °C. In addition, in data set [1], the “α-glucosidase inhibitory activity, in words” value is “good anti-α-glucosidase activity” and the IC50 was determined as 200.29 ± 0.1 µM.

Source of the values: PMC9217978, “Design, synthesis, in vitro α-glucosidase inhibition, docking, and molecular dynamics of new phthalimide-benzenesulfonamide hybrids for targeting type 2 diabetes” (Scientific Reports, 2022).
